Results from BindingDB's records for doi:10.1046/j.1440-1681.1999.03022.x (University of Melbourne, 1999).

What follows are compounds tested against T1, Promotilin (Oryctolagus cuniculus, UniProt P27114).
T1 sequence (P27114 whole entry): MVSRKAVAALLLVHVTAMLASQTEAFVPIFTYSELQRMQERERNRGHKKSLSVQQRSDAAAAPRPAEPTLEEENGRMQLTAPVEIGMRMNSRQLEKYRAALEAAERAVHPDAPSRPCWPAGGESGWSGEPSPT

Ki	SMILES
0.0316 µM	CC[C@H]1OC(=O)[C@H](C)[C@@H](O[C@H]2C[C@@](C)(OC)[C@@H](O)[C@H](C)O2)[C@H](C)[C@@H](O[C@@H]2O[C@H](C)C[C@H](N(C)C(C)C)[C@H]2O)[C@@]2(C)CC(C)=C(O2)[C@H](C)C(=O)[C@]1(C)OC [Mitemcinal]
1 µM	CC[C@H]1OC(=O)[C@H](C)[C@@H](O[C@H]2C[C@@](C)(OC)[C@@H](O)[C@H](C)O2)[C@H](C)[C@@H](O[C@H]2O[C@@H](C)C[C@@H](N(C)C)[C@@H]2O)[C@](C)(O)C[C@@H](C)C(=O)[C@H](C)[C@@H](O)[C@]1(C)O [(3R,4S,5S,6R,7R,9R,11R,12R,13S,14R)-6-{[(2R,3S,4R,6S)-4-(dimethylamino)-3-hydroxy-6-methyloxan-2-yl]oxy}-14-ethyl-7,12,13-trihydroxy-4-{[(2R,4R,5S,6S)-5-hydroxy-4-methoxy-4,6-dimethyloxan-2-yl]oxy}-3,5,7,9,11,13-hexamethyl-1-oxacyclotetradecane-2,10-dione]
0.00398 µM	CC[C@H](C)[C@H](NC(=O)[C@@H]1CCCN1C(=O)[C@@H](NC(=O)[C@@H](N)Cc1ccccc1)C(C)C)C(=O)N[C@@H](Cc1ccccc1)C(=O)N[C@H](C(=O)N[C@@H](Cc1ccc(O)cc1)C(=O)NCC(=O)N[C@@H](CCC(=O)O)C(=O)N[C@@H](CC(C)C)C(=O)N[C@@H](CCC(N)=O)C(=O)N[C@@H](CCCNC(=N)N)C(=O)N[C@@H](CCSC)C(=O)N[C@@H](CCC(N)=O)C(=O)N[C@@H](CCC(=O)O)C(=O)N[C@@H](CCCCN)C(=O)N[C@@H](CCC(=O)O)C(=O)N[C@@H](CCCNC(=N)N)C(=O)N[C@@H](CC(N)=O)C(=O)N[C@@H](CCCCN)C(=O)NCC(=O)N[C@@H](CCC(N)=O)C(=O)O)[C@@H](C)O [CAS_52906-92-0]
0.158 µM	C[N+](C)(C)CCOC(N)=O [(2-Hydroxyethyl)trimethyl ammonium chloride carbamate]
